Experimental findings from ChEMBL document CHEMBL5137081, “N-Heterocyclic 3-Pyridyl Carboxamide Inhibitors of DHODH for the Treatment of Acute Myelogenous Leukemia” (J Med Chem, 2022) are described below.

pIC50: −log10 of the molar value. A value given as a limit tells only on which side of the number the result lay.

Series [1] deals with MOLM-13. Nature of the series: Antitumor activity against human MOLM-13 cells xenografted in NSG mouse assessed as tumor growth inhibition at 20 mg/kg, po qd administered for 5 days relative to control. Format: functional. The settings on record: MOLM-13, 120 h, time 5 day, read-out: TGI. In general terms: In xenograft studies the graft and the host belong to different species.

Series [2] can be described thus: Metabolic stability in human liver microsome assessed as intrinsic clearance pretreated for 5 mins followed by NADPH addition and measured upto 60 mins by HPLC-MS/MS analysis. Type of series: ADME. The following applies: microsomes, 1.083 h, time < 65 min. In general terms: Microsomes from liver hold many membrane-bound enzymes, among them those of drug oxidation.

For series [3], the target named is Dihydroorotate dehydrogenase (quinone), mitochondrial (Mus musculus, UniProt O35435). Nature of the series: Inhibition of mouse DHODH.
Dihydroorotate dehydrogenase (quinone), mitochondrial (Mus musculus, UniProt O35435), sequence (O35435 whole entry): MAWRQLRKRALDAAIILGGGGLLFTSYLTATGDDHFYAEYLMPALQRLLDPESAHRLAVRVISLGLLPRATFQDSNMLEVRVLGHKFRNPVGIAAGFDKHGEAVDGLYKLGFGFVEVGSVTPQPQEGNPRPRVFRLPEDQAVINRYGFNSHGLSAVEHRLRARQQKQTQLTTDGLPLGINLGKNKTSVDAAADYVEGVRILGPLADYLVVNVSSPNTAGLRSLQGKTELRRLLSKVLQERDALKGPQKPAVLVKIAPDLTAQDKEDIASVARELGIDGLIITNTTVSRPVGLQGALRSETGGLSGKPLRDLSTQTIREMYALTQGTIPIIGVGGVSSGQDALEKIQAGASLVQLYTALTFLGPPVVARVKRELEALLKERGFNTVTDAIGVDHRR
For series [4], the system named is MOLM-13. The series is described as follows: Antitumor activity against human MOLM-13 cells xenografted in NSG mouse assessed as tumor growth inhibition at 10 mg/kg, po qd administered for 5 days relative to control. Type of series: functional. The following applies: MOLM-13, 120 h, time 5 day, read-out: TGI.
Series [5] is described as follows: Metabolic stability in dog liver microsome assessed as intrinsic clearance pretreated for 5 mins followed by NADPH addition and measured upto 60 mins by HPLC-MS/MS analysis. Type of series: ADME, Canis lupus familiaris. The settings on record: liver microsomes, time < 65 min, read-out: CLH.
Series [6] can be described thus: Tmax in C57BL/6 mouse at 10 mg/kg, po or 2 mg/kg, iv measured upto 24 hrs by LC-MS/MS analysis. The following applies: in vivo. Type of series: ADME, organism-based.
Series [7] in a line: Metabolic stability in mouse liver microsome assessed as intrinsic clearance pretreated for 5 mins followed by NADPH addition and measured upto 60 mins by HPLC-MS/MS analysis. Type of series: ADME. The following applies: liver microsomes, time < 65 min, read-out: CLH.
Series [8] addresses Voltage-gated inwardly rectifying potassium channel KCNH2 (Homo sapiens, UniProt Q12809). Nature of the series: Inhibition of hERG expressed in HEK293 cells by radioligand binding assay. Type of series: toxicity, cell-based. (In general: hERG is a cardiac potassium channel; its block is linked to QT prolongation.)
The target in the next series is Cytochrome P450 2C9 (Homo sapiens, UniProt P11712). The series is described as follows: Inhibition of CYP2C9 in human liver microsomes incubated for 10 mins by LC-MS/MS analysis. Format: ADME, Microsome.
Cytochrome P450 2C9, sequence (P11712 whole entry): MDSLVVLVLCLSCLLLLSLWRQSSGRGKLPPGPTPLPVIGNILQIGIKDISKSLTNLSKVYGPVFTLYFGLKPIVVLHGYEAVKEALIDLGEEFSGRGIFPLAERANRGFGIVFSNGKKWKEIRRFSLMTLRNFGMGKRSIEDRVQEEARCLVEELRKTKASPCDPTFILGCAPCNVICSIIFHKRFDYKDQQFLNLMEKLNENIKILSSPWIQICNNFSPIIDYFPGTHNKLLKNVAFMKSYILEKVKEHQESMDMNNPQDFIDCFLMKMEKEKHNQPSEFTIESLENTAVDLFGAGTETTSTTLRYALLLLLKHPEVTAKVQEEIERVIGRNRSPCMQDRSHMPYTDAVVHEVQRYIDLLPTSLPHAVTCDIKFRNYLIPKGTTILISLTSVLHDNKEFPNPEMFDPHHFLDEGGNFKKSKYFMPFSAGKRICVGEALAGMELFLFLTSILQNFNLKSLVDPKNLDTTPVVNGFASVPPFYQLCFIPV
A short description of series [9]: Intrinsic clearance in dog hepatocytes measured per 10^6 cells. Format: ADME, cell-based, Canis lupus familiaris, Hepatocyte.
A short description of series [10]: Metabolic stability in rat liver microsome assessed as intrinsic clearance pretreated for 5 mins followed by NADPH addition and measured upto 60 mins by HPLC-MS/MS analysis. Type of series: ADME. The following applies: liver microsomes, time < 65 min, read-out: CLH.
Series [11] can be described thus: AUC(0 to infinity) in Sprague-Dawley rat at 10 mg/kg, po or 2 mg/kg, iv measured upto 24 hrs by LC-MS/MS analysis. Type of series: ADME, organism-based. More on the design: dose 10 mg/kg, time < 24 hrs, route po. The following applies: in vivo.
In series [12] the target is Dihydroorotate dehydrogenase (quinone), mitochondrial (Rattus norvegicus, UniProt Q63707). Nature of the series: Inhibition of rat DHODH.
Dihydroorotate dehydrogenase (quinone), mitochondrial (Rattus norvegicus, UniProt Q63707), sequence (Q63707 whole entry): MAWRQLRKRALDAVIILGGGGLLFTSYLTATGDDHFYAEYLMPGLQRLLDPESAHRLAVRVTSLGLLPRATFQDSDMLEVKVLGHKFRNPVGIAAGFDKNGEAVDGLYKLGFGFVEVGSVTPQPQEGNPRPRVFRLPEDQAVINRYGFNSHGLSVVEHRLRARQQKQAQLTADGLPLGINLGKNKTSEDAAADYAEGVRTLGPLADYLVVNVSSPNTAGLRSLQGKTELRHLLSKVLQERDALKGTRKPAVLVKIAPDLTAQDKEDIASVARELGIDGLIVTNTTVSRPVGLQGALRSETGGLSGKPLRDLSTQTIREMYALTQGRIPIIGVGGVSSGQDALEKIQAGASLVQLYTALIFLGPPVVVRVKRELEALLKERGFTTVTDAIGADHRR
Series [13] is described as follows: Intrinsic clearance in monkey hepatocytes measured per 10^6 cells. Type of series: ADME, cell-based, Macaca mulatta, Hepatocyte. The settings on record: rhesus monkey.
A short description of series [14]: Toxicity in NSG mouse xenografted with human MOLM-13 cells assessed as change in body weight at 10 to 20 mg/kg, po qd administered for 5 days. Format: organism-based. The settings on record: in vivo, 120 h, dose 10-20 mg/kg, time 5 day.
Another series has as its system THP-1. The series is described as follows: Antiproliferative activity against human THP-1 cells assessed as reduction in cell viability measured after 72 hrs. Format: functional, cell-based. The following applies: THP-1, 72 h.
Series [15] in a line: Toxicity in NSG mouse xenografted with human MOLM-13 cells assessed as change in body weight at 1.5 to 7.9 mg/kg, po qd administered for 5 days. The following applies: in vivo, 120 h, dose 1.5-7.9 mg/kg, time 5 day. Format: organism-based.
Series [16] deals with MOLM-13. The series is described as follows: Antitumor activity against human MOLM-13 cells xenografted in NSG mouse assessed as tumor growth inhibition at 1.9 mg/kg, po qd administered for 5 days relative to control. Type of series: functional. The following applies: time 5 day.
The next series concerns MDR1. The series is described as follows: Efflux ratio of apparent permeability across basolateral to apical side over apical to basolateral side in dog MDCK-MDR1 cells. Type of series: ADME, cell-based, Canis lupus familiaris.
The subject of series [17] is MOLM-13. The series is described as follows: Antitumor activity against human MOLM-13 cells xenografted in NSG mouse assessed as tumor growth inhibition at 7.5 mg/kg, po qd administered for 5 days relative to control. The settings on record: time 5 day. Type of series: functional.
Series [18] relates to MOLM-13. The series is described as follows: Antitumor activity against human MOLM-13 cells xenografted in NSG mouse assessed as tumor growth inhibition at 3.75 mg/kg, po qd administered for 5 days relative to control. The following applies: time 5 day. Format: functional.

Voltage-gated inwardly rectifying potassium channel KCNH2, sequence (Q12809 whole entry): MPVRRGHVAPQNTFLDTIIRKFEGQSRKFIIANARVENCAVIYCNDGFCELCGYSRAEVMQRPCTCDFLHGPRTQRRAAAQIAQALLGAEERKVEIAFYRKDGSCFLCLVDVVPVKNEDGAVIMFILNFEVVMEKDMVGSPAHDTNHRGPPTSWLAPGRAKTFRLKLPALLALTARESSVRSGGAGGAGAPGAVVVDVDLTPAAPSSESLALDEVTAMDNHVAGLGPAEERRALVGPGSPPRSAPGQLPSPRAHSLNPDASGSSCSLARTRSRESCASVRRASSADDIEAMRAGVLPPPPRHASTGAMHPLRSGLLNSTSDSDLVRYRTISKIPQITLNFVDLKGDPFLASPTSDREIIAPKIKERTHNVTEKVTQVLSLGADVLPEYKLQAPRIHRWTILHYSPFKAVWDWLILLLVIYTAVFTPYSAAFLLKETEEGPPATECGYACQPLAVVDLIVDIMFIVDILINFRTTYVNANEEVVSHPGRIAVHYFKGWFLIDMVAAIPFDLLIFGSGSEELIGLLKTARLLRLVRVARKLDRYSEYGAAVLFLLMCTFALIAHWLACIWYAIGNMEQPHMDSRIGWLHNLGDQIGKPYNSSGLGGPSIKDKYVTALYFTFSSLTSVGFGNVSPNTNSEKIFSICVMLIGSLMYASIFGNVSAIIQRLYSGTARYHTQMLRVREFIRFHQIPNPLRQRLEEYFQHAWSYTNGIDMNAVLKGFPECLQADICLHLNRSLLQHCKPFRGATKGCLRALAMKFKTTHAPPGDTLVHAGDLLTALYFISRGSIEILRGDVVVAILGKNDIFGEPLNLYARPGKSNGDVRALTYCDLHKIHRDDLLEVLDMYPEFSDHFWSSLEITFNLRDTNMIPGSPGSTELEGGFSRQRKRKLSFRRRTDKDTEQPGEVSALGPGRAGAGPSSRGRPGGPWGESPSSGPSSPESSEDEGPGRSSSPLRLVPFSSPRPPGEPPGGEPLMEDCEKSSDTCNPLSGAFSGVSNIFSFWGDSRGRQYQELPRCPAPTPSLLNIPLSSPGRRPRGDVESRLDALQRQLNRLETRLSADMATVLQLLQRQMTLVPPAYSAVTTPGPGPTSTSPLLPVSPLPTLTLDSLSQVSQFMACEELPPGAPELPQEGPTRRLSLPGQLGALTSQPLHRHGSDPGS

In the case of `CCn1c(CO)nn(-c2nc(O[C@@H](C)C(F)(F)F)c(C(=O)Nc3c(C)ccnc3Cl)cc2F)c1=O`, the inhibition in vivo at 20 mg/kg with MOLM-13 [1] was 60%. The results for the CLH in [2], in series [9] and in series [13] were 8 µL/min/mg, 8.3 µL/min/1e6 cells and 4 µL/min/1e6 cells, respectively. In addition, the pIC50 was 6.85 in [3]; less than 5.00 in [8]; less than 5.00 against Cytochrome P450 2C9; 5.80 in series [12]; 8.30 with THP-1. The inhibition in vivo at 10 mg/kg with MOLM-13 [4] amounted to 44%. The CLint scaled in [5] came out at 8.3 mL/min/kg; in series [7] it was 5.7 mL/min/kg; in [10], 5.2 mL/min/kg. Also, in [6], the Tmax amounted to 25.2 min. This compound also showed an AUC(0-inf) in series [11] of 9210 ng·h/mL. For the same compound, the Activity result in series [14] was “Non-Toxic”.
With `CCn1c(CO)nn(-c2nc(O[C@@H](C)C(F)(F)F)c(C(=O)Nc3c(C)cnc(OC)c3Cl)cc2F)c1=O`, the Activity result in [15] is “Non-Toxic”. For the same compound, the CLH in [2] was less than 7.7 µL/min/mg; in series [9] it was 86 µL/min/1e6 cells; in series [13], 5.3 µL/min/1e6 cells. Moreover, the pIC50 was 8.00 in series [3]; less than 5.00 in series [8]; less than 5.00 on Cytochrome P450 2C9; 6.89 in [12]; 8.85 in the series on THP-1. Also, the CLint scaled in series [5] amounted to 86 mL/min/kg; in series [7], 5.5 mL/min/kg; in series [10], 6.2 mL/min/kg. Also, the TGI was determined as 71% with MOLM-13 [16], 79% with MOLM-13 [17] and 76% with MOLM-13 [18]. Moreover, the efflux ratio with MDR1 was greater than 30. For the same compound, in series [6], the Tmax is 60 min. In series [11], this compound gave an AUC(0-inf) of 23800 ng·h/mL.

By pIC50 is commonly meant −log10 of the IC50, conventionally taken in molar units. Usually Tmax stands for the time from dosing to the highest level. A word on the AUC(0-inf): it is total exposure, with the tail of the curve extrapolated. Usually TGI stands for how far tumour growth fell short of that in controls. In general, efflux ratio refers to the permeability from basolateral to apical divided by that in the opposite direction, in the common usage.
